This is an account of results in patent publication US20120088803A1, “CONTROL AGENT FOR SOFT ROT AND CONTROL METHOD FOR THE SAME” (Ishihara Sangyo Kaisha, Ltd, priority 2009, published 2012).

Each structure is given as a SMILES string. Several values for one entry are separate records, joined by “and”; a condition that tells them apart may be missing. Equal entries are not always repeated.

Assay [1] has as its system Chinese cabbage soft rot. The experiment in a line: Test for disease control of Chinese cabbage, field (Example 3 / Comparative example 2). The format is in vivo, Erwinia carotovora. Also noted: key to Disease incidence rate: % of examined plants diseased; key to Disease control value: (1 - severity treated/severity untreated) x 100; key to Disease severity: severity index 0-100 from disease index 0-4 weighted counts. The following applies: for Disease incidence rate / Disease severity / Disease control value: 54 days; for Disease control value: vs untreated plot. An excerpt:
(§1) (Disease incidence rate)=[(number of diseased plants)/(number of plants examined)]*100
(§2) (Disease severity)={S [(number of diseased plants in each class into which the plants are classified according to the degree of disease)*(disease index)]/[(number of plants examined)*4]}*100
(§3) (Disease control value)={1-[(Disease severity in treated plot)/(Disease severity in untreated plot)]}*100
(§4) Incidentally, the evaluation criteria for the disease index are as follows. • (Disease index) • 0: No lesion • 1: Lesions appear only in part of outer leaves (shipment can be made). • 2: Lesions appear in outer leaves and part of head leaves (the damaged part is removed and shipment as a small size plant can be made, rated Grade B). • 3: Lesions appear in most head leaves or more (shipment cannot be made). • 4: Lesions appear in the entire plant and the plant dies.
Preparation was performed using 500 g/L of 3-chloro-N-(3-chloro-5-trifluoromethyl-2-pyridyl)-alpha,alpha,alpha-trifluoro-2,6-dinit ro-p-toluidine (fluazinam, Frowncide SC (trade name), manufactured by Ishihara Sangyo Kaisha, Ltd.) such that the amount of the active ingredient was 62.5 g ai/10 a (125 mL product/10 a), 125 g ai/10 a (250 mL product/10 a), and 250 g ai/10 a (500 mL product/10 a), and each amount of dilution water was 150 L/10 a.
A mulch-sheet for agricultural use was spreaded on soil, and planting holes for settlement (diameter: about 9 cm) were made, and then, the spray solution prepared in the above was sprayed onto the planting holes such that the amount of treated active ingredient was 0.0625 g/m^2 (150 L/10 a) in the case of the spray solution containing the active ingredient at 62.5 g ai/10 a, 0.125 g/m^2 (150 L/10 a) in the case of the spray solution containing the active ingredient at 125 g ai/10 a, and 0.25 g/m^2 (150 L/10 a) in the case of the spray solution containing the active ingredient at 250 g ai/10 a, followed by air-drying. Then, seedlings of Chinese cabbage (cultivar: Musou) grown for 4 weeks in a cell tray (128 holes/nursery box) were planted such that 30 seedlings were planted in one test plot having an area of 6 m^2 with two replications.
Preparation was performed by diluting streptomycin (Mycin 20 wettable powder (trade name), manufactured by Hokko Chemical Industry Co., Ltd.) with water to 1/1000.
In a field covered with a mulch-sheet for agricultural use, seedlings of Chinese cabbage (cultivar: Musou) grown in a cell tray were planted, in the same manner as in Example 3, and foliage application was performed by spraying the spray solution of streptomycin prepared in (1) (spraying amount per application: 300 L/10 a) three times (13 days, 20 days, and 27 days after the planting of the seedlings).
The degree of disease incidence was examined for all the plants in each test plot 54 days after the start of the test, and the disease severity and the disease control value were evaluated. Incidentally, the disease severity and the disease control value were obtained in the same manner as described above.

Assay [2] has as its system Chinese cabbage soft rot. The experiment in a line: Test for disease control of Chinese cabbage, field (Example 2). As to conditions: 250 g ai/10 a, 50 days. The assay is classed as in vivo, Erwinia carotovora. Also noted: key to Disease incidence rate: % of examined plants that are diseased; key to Disease control value: (1 − severity treated/severity untreated) × 100; key to Disease severity: Σ(diseased plants per class × index 0-4)/(plants × 4) × 100.
Description: as §1, §2, §3, §4
Preparation was performed using 500 g/L of • 3-chloro-N-(3-chloro-5-trifluoromethyl-2-pyridyl)-alpha,alpha,alpha-trifluoro-2,6-dinit ro-p-toluidine (fluazinam, Frowncide SC (trade name), manufactured by Ishihara Sangyo Kaisha, Ltd.) such that the amount of the active ingredient was 250 g ai/10 a (500 mL product/10 a), and the amount of dilution water was 150 L/10 a.
A mulch-sheet for agricultural use was spreaded on soil, and planting holes for settlement (diameter: about 5 cm) were made, and then, the spray solution prepared in the above was sprayed onto the planting holes such that the spraying amount was 0.25 g/m^2 (150 L/10 a), followed by air-drying. Then, seedlings of Chinese cabbage (cultivar: Yumebuki) grown for 4 weeks in a cell tray (128 holes/nursery box) were planted such that 34 to 40 seedlings were planted in one test plot having an area of 4.8 m^2 with three replications.
The degree of disease incidence was examined for all the plants in each test plot 50 days after the start of the test, and the disease severity and the disease control value were evaluated. Incidentally, the disease severity and the disease control value were obtained in the same manner as described above.

Where [3] appears, read: 62.5 g ai/10 a, 150 L/10 a onto planting holes, Musou, Average.
The mark [4] stands for this setting: 125 g ai/10 a, 150 L/10 a onto planting holes, Musou, Average.
The mark [5] stands for this setting: 125 g ai/10 a, 150 L/10 a onto planting holes, Musou, single replications I-II.
Where [6] appears, read: 250 g ai/10 a, 150 L/10 a onto planting holes, Musou, Average.
Setting [7] is: 250 g ai/10 a, 150 L/10 a onto planting holes, Musou, single replications I-II.
Where [8] appears, read: 150 L/10 a onto planting holes, Yumebuki, Average of replications.
Setting [9] is: 1/1000 dilution, foliage application three times, Musou, Average.

In the case of `O=[N+]([O-])c1cc(C(F)(F)F)c(Cl)c([N+](=O)[O-])c1Nc1ncc(C(F)(F)F)cc1Cl` [Fluazinam, 3-chloro-N-(3-chloro-5-trifluoromethyl-2-pyridyl)-alpha,alpha,alpha-trifluoro-2,6-dinit ro-p-toluidine], the Disease incidence rate in the assay with Chinese cabbage soft rot [1] (setting [3]) was 100; with Chinese cabbage soft rot [1] (62.5 g ai/10 a, 150 L/10 a onto planting holes, cultivar Musou, single replications I-II), 100; with Chinese cabbage soft rot [1] (setting [4]), 100; in the assay on Chinese cabbage soft rot [1] (setting [5]), 100; in the assay on Chinese cabbage soft rot [1] (setting [6]), 83.3; in the assay on Chinese cabbage soft rot [1] (setting [7]), 73.3 and 93.3. Besides, the Disease incidence rate with Chinese cabbage soft rot [2] (setting [8]) is 45.4; in the assay with Chinese cabbage soft rot [2] (150 L/10 a sprayed onto planting holes of mulch-sheet, cultivar Yumebuki, single replications I-III), 55.0 and 37.5 and 43.6. Moreover, the Disease severity is 32.1 in the assay on Chinese cabbage soft rot [1] (setting [3]); 26.7 and 37.5 with Chinese cabbage soft rot [1] (62.5 g ai/10 a, 150 L/10 a onto planting holes, Musou, single replications I-II); 30.9 in the assay on Chinese cabbage soft rot [1] (setting [4]); 33.3 and 28.4 with Chinese cabbage soft rot [1] (setting [5]); 25 in the assay with Chinese cabbage soft rot [1] (setting [6]); 20 and 30 in the assay with Chinese cabbage soft rot [1] (setting [7]). For the same compound, the Disease severity with Chinese cabbage soft rot [2] (setting [8]) was 16.4; in the assay on Chinese cabbage soft rot [2] (150 L/10 a onto planting holes, Yumebuki, single replications I-III) it was 19.4 and 13.1 and 16.7. Besides, the Disease control value is 28.7 with Chinese cabbage soft rot [1] (62.5 g ai/10 a, 150 L/10 a onto planting holes, Musou); 31.3 with Chinese cabbage soft rot [1] (125 g ai/10 a, 150 L/10 a onto planting holes, Musou); 44.4 with Chinese cabbage soft rot [1] (250 g ai/10 a, 150 L/10 a onto planting holes, Musou); 66.4 in the assay with Chinese cabbage soft rot [2] (150 L/10 a onto planting holes, Yumebuki, vs untreated plot). Also, the “Control effect on Chinese cabbage soft rot compared with foliage application of streptomycin (in words)” value in the assay with Chinese cabbage soft rot [1] (Table 3 test, moderate incidence conditions, even at 62.5 g ai/10 a or 125 g ai/10 a) was “a higher control effect”.
In the case of `[H]/N=C(/N)N[C@H]1[C@H](O)[C@@H](O)[C@H](O[C@@H]2O[C@@H](C)[C@](O)(C=O)[C@H]2O[C@@H]2O[C@@H](CO)[C@H](O)[C@@H](O)[C@@H]2NC)[C@@H](N/C(N)=N\[H])[C@@H]1O` [Streptomycin, streptomycin], the Disease incidence rate was 100 with Chinese cabbage soft rot [1] (1/1000 dilution, foliage application 300 L/10 a three times (13, 20, 27 days), Musou, single replications I-II) and 100 with Chinese cabbage soft rot [1] (setting [9]). In addition, the Disease severity with Chinese cabbage soft rot [1] (setting [9]) is 36.7; in the assay with Chinese cabbage soft rot [1] (1/1000 dilution, foliage application three times, Musou, single replications I-II), 32.5 and 40.8. The compound further had a Disease control value in the assay on Chinese cabbage soft rot [1] (1/1000 dilution, foliage application three times, Musou) of 18.4.
